How the values were obtained:
[1] = test system: xenograft mouse model made using Caki-I; test: Change of tumor volume by intraperitoneal D-allose injection, Caki-I xenograft mouse model; type: in vivo, mice
Method: The experiment of the present example used two human renal cell carcinoma cell lines (Caki-I and ACHN). Each cell was cultured under the wet environment of 37° C. and 5% CO2 by using a RPMI-1640 culture solution (2000 mg D-glucose/L) containing a 10% fetal calf serum, a HEPES buffer, and penicillin-streptomycin.
With respect to a renal cell carcinoma xenograft mouse model, a 1.0×10^5 cells/ml of a cell suspension was obtained by adjusting the cultured cells with a MEM culture solution and then 0.1 ml of the resulting suspension was injected into the femoral subcutaneous tissue of Female athymic nude mice (BALB/c-nu/nu, 6-week-old). After checking that the tumor volume was 200 mm^3 or more one week after the injection, the mice were provided for the experiment thereafter.
The day when the tumor size of the renal cell carcinoma xenograft mouse models became 200 mm^3 or more was called day 0 and the intraperitoneal injection of a D-allose-containing solution was started from day 1. The solution injected is 0.4 mL of physiological saline or a solution obtained by dissolving 100 mg/kg or 400 mg/kg of D-allose in 0.4 mL physiological saline. The resulting solution was intraperitoneally injected into three groups of mice (Control, 100 mg/kg of D-allose, and 400 mg/kg of D-allose) once a day for 5 weeks in total. The body weight of the mice and the long and short diameters of the tumor were measured over time twice a week. It is to be noted that the tumor volume was obtained as a product of long diameter×short diameter×short diameter of the tumor×0.5. On day 35 after the intraperitoneal injection was started, the tumor as well as the liver and kidney were excised from the mice and provided for the experiment performed thereafter.

[2] = test system: renal cell carcinoma cell line (ACHN); test: Cell survival assay (MTT assay), ACHN; type: cell-based, human; conditions: 10 mM, 25 mM and 50 mM in MEM, 24 hours, compared with Control (p<0.05), FIG. 1
Method: The antitumor effect of rare sugars was analyzed using the three human renal cell carcinoma cell lines (ACHN, Caki-I, and Caki-II) used in Example 1. As the rare sugars, used were the following ten rare sugars: L-allulose, D-allulose, D-allose, L-fructose, D-mannose, L-sorbose, D-tagatose, D-galactose, D-sorbose, and L-tagatose, while as monosaccharides not belonging to rare sugars, D-glucose and D-fructose were used.
As a medium, a minimum essential medium (MEM) containing 1000 mg/l of D-glucose was used. By adjusting it to contain 10 mM, 25 mM, and 50 mM of each of the monosaccharides or rare sugars and using thus-obtained MEMs [shown by (10), (25), and (50) in the drawing], an antitumor effect of the rare sugars was evaluated.
A 5.0×10^4 cells/ml of each of cell suspensions was formed using MEM. The resulting suspension (0.1 ml/well) was distributed in a 96-well plate, followed by culturing for 24 hours. […]
The MTT assay is one of test methods for measuring survival and makes use of a color reaction of an insoluble formazan dye (blue) caused by the reduction of MTT which is a tetrazolium salt. […] The cell viability is determined by measuring this color reaction with a microplate reader.

## O=C[C@H](O)[C@H](O)[C@H](O)[C@H](O)CO [D-allose]
[1]; 100 mg/kg intraperitoneal once a day, on and after day 31, Mann-Whitney U test
  Tumor volume versus Control group: significantly smaller than that of the Control group
[1]; 400 mg/kg intraperitoneal once a day, on and after day 16
  Tumor volume versus tumor volume before administration: significantly smaller than the tumor volume before administration
[1]; 400 mg/kg intraperitoneal once a day, on and after day 16, Mann-Whitney U test
  Tumor volume versus Control group: significantly smaller than that of the Control group
[2]
  Viability: significantly reduced the viability
